{"source": "patent US9187441B2", "about": "“p53-Mdm2 antagonists” (University of Pittsburgh—Of the Commonwealth System of …, priority 2010, dated 2015)", "key": {"[1]": {"target": "T1, Mdm2 (Homo sapiens (Human), UniProt Q00987)", "T1 sequence (Q00987 whole entry)": "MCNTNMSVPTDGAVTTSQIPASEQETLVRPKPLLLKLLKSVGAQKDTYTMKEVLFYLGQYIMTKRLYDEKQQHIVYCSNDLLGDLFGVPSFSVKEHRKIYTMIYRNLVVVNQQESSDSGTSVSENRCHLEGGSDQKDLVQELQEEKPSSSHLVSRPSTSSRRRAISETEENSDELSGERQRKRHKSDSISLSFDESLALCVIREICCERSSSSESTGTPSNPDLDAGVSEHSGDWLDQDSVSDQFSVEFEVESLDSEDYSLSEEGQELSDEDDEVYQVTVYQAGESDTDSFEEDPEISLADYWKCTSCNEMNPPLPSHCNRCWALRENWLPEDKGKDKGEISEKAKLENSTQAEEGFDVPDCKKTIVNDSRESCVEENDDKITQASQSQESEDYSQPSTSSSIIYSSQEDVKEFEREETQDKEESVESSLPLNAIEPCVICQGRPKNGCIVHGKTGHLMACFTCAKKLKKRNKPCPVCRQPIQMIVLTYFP", "assay": "NMR (AIDA) ligand binding to Mdm2", "details": "Table 8, Formula II compounds, measured by NMR (AIDA)", "experimental": "All NMR spectra were acquired at 298 K on a Bruker DRX 600 MHz spectrometer equipped with a cryoprobe. Typically, NMR samples contained 0.1-0.2 mM protein in 50 mM KH2PO4 and 50 mM Na2HPO4, pH 7.4, containing 150 mM NaCl and 5 mM β-Mercaptoethanol. Water suppression was carried out using the WATERGATE sequence. NMR data were processed using the Bruker program Xwin-NMR version 3.5. NMR ligand binding experiments were carried out in an analogous way to those previously described. See D'Silva L., et. al., J. Am. Chem. Soc. 2005, 127, 13220-13226 and Popowicz G. M., et. al., Cell Cycle. 2007, 6, 2386-2392. The maximum concentration of DMSO at the end of titration experiments was less than 1%. The pH was maintained constant during the entire titration. The 1H-15N-HSQC spectra were recorded using fast HSQC pulse sequence as described by Mori et. al., J. Magn. Reson. B 1995, 108, 94-98.\nThe binding constants (Ki values), of representative Formula II compounds was determined using fluorescence polarization or NMR spectroscopy and are illustrated in Table 8."}, "[2]": {"assay": "Water (aqueous) solubility", "assay_type": "physicochemical"}, "[3]": {"target": "T1, Mdm2", "assay": "Fluorescence polarization (FP) competition binding assay with Mdm2"}, "[4]": {"details": "Table 8, Formula II compounds, measured by FP"}, "[5]": {"details": "read-out: Ki (inhibition constant), Table 1, compounds 8 (C-2 ethyl esters), FP assay, n.i. = no interaction"}, "[6]": {"details": "Table 1, compounds 8 (C-2 ethyl esters), FP assay, n.i. = no interaction"}}}
{"smiles": "CCOC(=O)c1[nH]c2cc(Cl)ccc2c1C(NC(CC(C)C)C(=O)OC)C(=O)NCc1ccccc1", "note": "(stereo in doubt) [KK229, Ethyl 3-(2-(benzylamino)-1-(((R)-1-methoxy-4-methyl-1-oxopentan-2-yl)amino)-2-oxoethyl)-6-chloro-1H-indole-2-carboxylate]", "values": [{"measurement": "Ki", "setting": "[1]", "value": 1.7, "unit": "µM"}]}
{"smiles": "CC(C)(C)NC(=O)C(c1c(C(=O)O)[nH]c2cc(Cl)ccc12)N(C=O)Cc1cc(F)c(F)c(F)c1", "note": "(stereo not shown) [Compound 7M, 3-(2-(tert-butylamino)-2-oxo-1-(N-(3,4,5-trifluorobenzyl)formamido)ethyl)-6-chloro-1H-indole-2-carboxylic acid]", "values": [{"measurement": "solubility", "setting": "[2]; aqueous medium", "value": 850, "unit": "µg/mL"}]}
{"smiles": "CC(C)CC(NC(C(=O)NCc1ccccc1)c1c(C(=O)O)[nH]c2cc(Cl)ccc12)C(=O)NCCN1CCOCC1", "note": "(stereo not shown) [KK273, 3-(2-(benzylamino)-1-(4-methyl-1-(2-morpholinoethylamino)-1-oxopentan-2-ylamino)-2-oxoethyl)-6-chloro-1H-indole-2-carboxylic acid]", "values": [{"measurement": "Ki", "setting": "[1]", "value": 0.4, "unit": "µM"}]}
{"smiles": "CCOC(=O)c1[nH]c2cc(Cl)ccc2c1C(NC(CC(C)C)C(=O)O)C(=O)NCc1ccccc1", "note": "(stereo not shown) [KK272, 2-((2-(benzylamino)-1-(6-chloro-2-(ethoxycarbonyl)-1H-indol-3-yl)-2-oxoethyl)amino)-4-methylpentanoic acid]", "values": [{"measurement": "Ki", "setting": "[3]; [4]", "value": 1.4, "unit": "µM"}]}
{"smiles": "CC(C)(C)NC(=O)C(c1c(C(=O)O)[nH]c2cc(Cl)ccc12)N(C=O)Cc1cccc(F)c1", "note": "(stereo not shown) [Compound 7C, 3-(2-(tert-butylamino)-1-(N-(3-fluorobenzyl)formamido)-2-oxoethyl)-6-chloro-1H-indole-2-carboxylic acid]", "values": [{"measurement": "Ki", "setting": "[3]", "value": 0.81, "unit": "µM"}]}
{"smiles": "CC(C)CC(NC(C(=O)NCc1ccccc1)c1c(C(=O)O)[nH]c2cc(Cl)ccc12)C(=O)NCCO", "note": "(stereo not shown) [KK278, 3-(2-(benzylamino)-1-((1-((2-hydroxyethyl)amino)-4-methyl-1-oxopentan-2-yl)amino)-2-oxoethyl)-6-chloro-1H-indole-2-carboxylic acid]", "values": [{"measurement": "Ki", "setting": "[3]; [4]", "value": 9, "unit": "µM"}]}
{"smiles": "CCOC(=O)c1[nH]c2cc(Cl)ccc2c1C(C(=O)NC1CCCCC1)N(C=O)Cc1ccc(Cl)cc1", "note": "(stereo not shown) [Compound 8j, Ethyl 6-chloro-3-(1-(N-(4-chlorobenzyl)formamido)-2-(cyclohexylamino)-2-oxoethyl)-1H-indole-2-carboxylate]", "values": [{"measurement": "Ki", "setting": "[3]; [5]", "value": 50, "unit": "µM"}]}
{"smiles": "CCOC(=O)c1[nH]c2cc(Cl)ccc2c1C(C(=O)NC1CCCCC1)N(C=O)Cc1ccc(F)cc1", "note": "(stereo not shown) [Compound 8k, Ethyl 6-chloro-3-(2-(cyclohexylamino)-1-(N-(4-fluorobenzyl)formamido)-2-oxoethyl)-1H-indole-2-carboxylate]", "values": [{"measurement": "Ki", "setting": "[3]; [5]", "value": 30, "unit": "µM"}]}
{"smiles": "CCOC(=O)c1[nH]c2cc(Cl)ccc2c1C(NC(CC(C)C)C(=O)NCCCN1CCOCC1)C(=O)NCc1ccccc1", "note": "(stereo in doubt) [KK261, Ethyl 3-(2-(benzylamino)-1-(((S)-4-methyl-1-((3-morpholinopropyl)amino)-1-oxopentan-2-yl)amino)-2-oxoethyl)-6-chloro-1H-indole-2-carboxylate]", "values": [{"measurement": "Ki", "setting": "[3]; [4]", "value": 11, "unit": "µM"}]}
{"smiles": "CCOC(=O)c1[nH]c2cc(Cl)ccc2c1C(C(=O)NCc1ccccc1)N(CC(C)C)C(C)=O", "note": "(stereo not shown) [Compound 8c, Ethyl 3-(2-(benzylamino)-1-(N-isobutylacetamido)-2-oxoethyl)-6-chloro-1H-indole-2-carboxylate]", "values": [{"measurement": "Ki", "setting": "[3]; [5]", "value": 4, "unit": "µM"}]}
{"smiles": "CCOC(=O)c1[nH]c2cc(Cl)ccc2c1C(C(=O)NC1CCCCC1)N(Cc1ccc(Cl)c(Cl)c1)C(C)=O", "note": "(stereo not shown) [Compound 8g, Ethyl 6-chloro-3-(2-(cyclohexylamino)-1-(N-(3,4-dichlorobenzyl)acetamido)-2-oxoethyl)-1H-indole-2-carboxylate]", "values": [{"measurement": "Ki", "setting": "[3]; [5]", "value": 9, "unit": "µM"}]}
{"smiles": "CC(C)CC(NC(C(=O)NCc1ccccc1)c1c(C(=O)O)[nH]c2cc(Cl)ccc12)C(=O)NCCCN1CCOCC1", "note": "(stereo not shown) [KK279, 3-(2-(benzylamino)-1-((4-methyl-1-((3-morpholinopropyl)amino)-1-oxopentan-2-yl)amino)-2-oxoethyl)-6-chloro-1H-indole-2-carboxylic acid]", "values": [{"measurement": "Ki", "setting": "[3]; [4]", "value": 7, "unit": "µM"}]}
{"smiles": "CCOC(=O)c1[nH]c2cc(Cl)ccc2c1C(C(=O)NC(C)(C)C)N(C=O)Cc1ccc(-c2ccccc2)cc1", "note": "(stereo not shown) [Compound 8s, Ethyl 3-(1-(N-(biphenyl-4-ylmethyl)formamido)-2-(tert-butylamino)-2-oxoethyl)-6-chloro-1H-indole-2-carboxylate]", "values": [{"measurement": "Ki (inhibition constant)", "setting": "[3]; [6]", "value": "n.i."}]}
{"smiles": "COc1ccc(C2=N[C@@H](c3ccc(Cl)cc3)[C@@H](c3ccc(Cl)cc3)N2C(=O)N2CCNC(=O)C2)c(OC(C)C)c1", "note": "[Nutlin-3a, reference compound]", "values": [{"measurement": "aqueous solubility", "setting": "[2]", "value": 100, "unit": "µg/mL"}]}
{"smiles": "CCOC(=O)c1[nH]c2cc(Cl)ccc2c1C(N[C@H](C(=O)OC)C(C)C)C(=O)NCc1ccccc1", "note": "(stereo partly drawn) [KK228, Ethyl 3-(2-(benzylamino)-1-(((S)-1-methoxy-3-methyl-1-oxobutan-2-yl)amino)-2-oxoethyl)-6-chloro-1H-indole-2-carboxylate]", "values": [{"measurement": "Ki", "setting": "[3]; [4]", "value": "< 1", "unit": "µM"}]}
{"smiles": "CC(C)(C)NC(=O)C(c1c(C(=O)O)[nH]c2cc(Cl)ccc12)N(C=O)Cc1ccccc1F", "note": "(stereo not shown) [Compound 7D, 3-(2-(tert-butylamino)-1-(N-(2-fluorobenzyl)formamido)-2-oxoethyl)-6-chloro-1H-indole-2-carboxylic acid]", "values": [{"measurement": "Ki", "setting": "[3]", "value": 1.7, "unit": "µM"}]}
{"smiles": "CCOC(=O)c1[nH]c2cc(Cl)ccc2c1C(NC(CC(C)C)C(=O)NCCO)C(=O)NCc1ccccc1", "note": "(stereo in doubt) [KK259, Ethyl 3-(2-(benzylamino)-1-(((S)-1-((2-hydroxyethyl)amino)-4-methyl-1-oxopentan-2-yl)amino)-2-oxoethyl)-6-chloro-1H-indole-2-carboxylate]", "values": [{"measurement": "Ki", "setting": "[3]; [4]", "value": 9, "unit": "µM"}]}
{"smiles": "CC(C)(C)NC(=O)C(c1c(C(=O)O)[nH]c2cc(Cl)ccc12)N(C=O)Cc1cc(F)ccc1F", "note": "(stereo not shown) [Compound 7H, 3-(2-(tert-butylamino)-1-(N-(2,5-difluorobenzyl)formamido)-2-oxoethyl)-6-chloro-1H-indole-2-carboxylic acid]", "values": [{"measurement": "Ki", "setting": "[3]", "value": 2.5, "unit": "µM"}]}
{"smiles": "CCOC(=O)c1[nH]c2cc(Cl)ccc2c1C(C(=O)NCc1ccccc1)N(Cc1ccccc1)C(C)=O", "note": "(stereo not shown) [Compound 8d, Ethyl 3-(1-(N-benzylacetamido)-2-(benzylamino)-2-oxoethyl)-6-chloro-1H-indole-2-carboxylate]", "values": [{"measurement": "Ki", "setting": "[3]; read-out: Ki (inhibition constant)", "value": 6, "unit": "µM"}]}
{"smiles": "CCOC(=O)c1[nH]c2cc(Cl)ccc2c1C(C(=O)NC(C)(C)C)N(C=O)Cc1ccc(Oc2ccccc2)cc1", "note": "(stereo not shown) [Compound 8t, Ethyl 3-(2-(tert-butylamino)-2-oxo-1-(N-(4-phenoxybenzyl)formamido)ethyl)-6-chloro-1H-indole-2-carboxylate]", "values": [{"measurement": "Ki (inhibition constant)", "setting": "[3]; [6]", "value": "n.i."}]}
{"smiles": "CC(C)(C)NC(=O)C(c1c(C(=O)O)[nH]c2cc(Cl)ccc12)N(C=O)Cc1ccc(-c2ccccc2)cc1", "note": "(stereo not shown) [Compound 9s, 3-(1-(N-(biphenyl-4-ylmethyl)formamido)-2-(tert-butylamino)-2-oxoethyl)-6-chloro-1H-indole-2-carboxylic acid]", "values": [{"measurement": "Ki", "setting": "[3]; read-out: Ki (inhibition constant), Table 2, compounds 9 (free C-2 carboxylic acids), FP assay", "value": 2.5, "unit": "µM"}]}
{"smiles": "CCOC(=O)c1[nH]c2cc(Cl)ccc2c1C(N[C@@H](CC(C)C)C(=O)NCCN1CCOCC1)C(=O)NCc1ccccc1", "note": "(stereo partly drawn) [KK242, Ethyl 3-(2-(benzylamino)-1-(((S)-4-methyl-1-((2-morpholinoethyl)amino)-1-oxopentan-2-yl)amino)-2-oxoethyl)-6-chloro-1H-indole-2-carboxylate]", "values": [{"measurement": "Ki", "setting": "[3]; [4]", "value": 10, "unit": "µM"}]}
